Where “and” joins values, the source holds several entries; their conditions need not be identical. Identical values can stand only once. Like-named read-outs stand apart in the source and are kept apart here. Marks after values point to notes of the source that are not given here.
Assays:
[1] = molecular target: C3 (Homo sapiens, UniProt P01024); settings: Qu et al. 2013; cited from earlier work
[2] = in vivo; settings: male, cynomolgus monkey, sc, 2 mg/kg, t1/2
[3] = Solubility of Cp40-based analogs in PBS
[4] = Pharmacokinetics in NHP plasma after single s.c. injection; settings: for AUC(0-t): AUC0-t (0-120 h); for AUC(0-inf): AUCinf
[5] = in vivo; settings: cynomolgus monkey, im, 25 mg/kg
[6] = Residence time in the vitreous after intravitreal injection (WES / SPR competition assay); type: in vivo, cynomolgus monkeys; set-up: detection in the vitreous: dose or concentration left out as unconfirmed; settings: for detection in the vitreous at time points post-injection: days 14-90
Protocol: To determine the residence time of mPEG(3k)-Cp40, mPEG(1k)-Cp40, Cp40-KK, and Cp40-KKK in the vitreous of cynomolgus macaques, these Cp40-based analogs were administered intravitreally (i.v.t.) to the animals after induction of light ketamine anesthesia (10-15 mg/kg, by intramuscular injection (i.m.)) and dilation of the pupils with tropicamide/phenylephrine ophthalmic solution (see Table 6 for study design).
For i.v.t. injection, the cynomolgus monkeys were anesthetized with a combination of ketamine (15-25 mg/kg, i.m.) and xylazine (2 mg/kg, i.m.) and the eye was cleaned with povidone-iodine solution. After application of oxybuprocaine hydrochloride solution (Benoxil® ophthalmic solution 0.4%) to the cornea as a local anesthetic, the Cp40-based analogs were administered to the animals by i.v.t. injection into either the right (G1, G3) or left (G2, G4) eye of each animal. Immediately following each injection, a single topical dose of 0.5% levofloxacin was administered. After i.v.t. injection of mPEG(3k)-Cp40, mPEG(1k)-Cp40, Cp40-KK, and Cp40-KKK, vitreous fluid samples (about 50 μL each) were withdrawn from Cp40-based analog-treated eyes on days 14, 28, 42, (G1, G2, G3, G4), 56, 73, 90 (G1, G2) (this was done either three times or six times). Samples were collected on ice and stored in a deep freezer (−79.3 to −68.5° C.) until further analysis. On day 73 and 90, about 100 μL of vitreous fluid from G1 and G2 were withdrawn. Presence and concentration of the Cp40-based analogs was determined using either the simple western technology (WES, ProteinSimple, San Jose, Calif.), or surface plasmon resonance (SPR)-based real-time measurement of binding kinetics on a Cp40-KKK immobilized chip (see detailed methods below). Similar results with regard to the intravitreal residence time and concentration levels of the test compounds were obtained regardless of the quantification method selected.
To quantify the levels of all test compounds in vitreous samples collected at different time points following i.v.t. injection (see FIG. 15), WES analysis was performed on a WES instrument (ProteinSimple, San Jose, Calif.) using a 2 to 40 kDa Separation Module and Anti-Rabbit Detection Module according to the manufacturers' instructions. In brief, undiluted eye vitreous samples were mixed with a Fluorescent Master Mix and heated at 95° C. for 5 min. The samples, blocking reagent, primary antibodies (in house developed anti-Cp40; 1:1000 in blocking reagent), HRP-conjugated secondary antibody (anti-rabbit IgG) and chemiluminescent substrate were pipetted into the plate (part of Separation Module). The used instrument settings were: stacking and separation at 375 V for 27 min; blocking reagent for 30 min, primary and secondary antibody both for 30 min; Luminol/peroxide chemiluminescence detection for ˜15 min (exposures of 5, 15, 30, 60, 120, 240, and 480 s). The resulting electropherograms were evaluated using the Compass software (ProteinSimple, San Jose, Calif.). The following criteria were used to discriminate low peptide signals from background: The peak signal-to-noise (S/N) ratio given by the software must be ≥10, and the peak height/baseline ratio (calculated manually from the peak height and baseline values given by the software) must be equal to or greater than 3. A five-point standard curve of known concentrations (100-2,000 nM) of peptide spiked in rabbit vitreous was used to calculate peptide concentration in the vitreous samples using the Compass software (Compass Software Inc., Atlanta, Ga.). […] Shown in FIG. 15 is a representative standard curve generated using the WES system and bands obtained upon running pre-determined amounts of purified peptide spiked into rabbit vitreous samples.
To corroborate the WES-based measurements for all test compounds, an SPR-based competition assay was developed for detecting Cp40 and Cp40 analogs in biological samples. […] The samples were heated at 95° C. for 5 min. […]

[7] = Plasma concentration after multiple injections in NHP; type: in vivo, cynomolgus monkeys; settings: cynomolgus monkey, sc
[8] = test system: classical pathway activation (C3b deposition); experiment: Classical pathway activation ELISA (C3b deposition) with or without rabbit vitreous; type: biochemical, human; settings: in the absence of vitreous
Protocol: An alternative explanation to the one presented above is that the vitreous contains additional unidentified factors that associate with the Cp40-KKK analog. To investigate whether an unidentified vitreous factor impacts the complement inhibitory activity of lysine containing compounds, complement activation assays were performed using vitreous samples. Briefly, human plasma was incubated with OVA-anti-OVA immune-complexes in the presence of serial dilutions of the Cp40-based analogs mixed with rabbit vitreous. Levels of classical pathway activation (C3b deposition) were determined by ELISA using a polyclonal anti-human C3 antibody conjugated with HRP (MP Biomedicals, Solon, Ohio) (FIG. 20).

[9] = physchem; settings: pH 7.4, Conc. (solubility in PBS)
[10] = molecular target: T1, purified human C3b (Homo sapiens, UniProt P01024); experiment: SPR C3b binding of Cp40-KKK in vitreous samples; settings: for C3b-binding signal: day 14
T1 construct: purchased Complement Technology, Inc., Tyler, Tex
Protocol: To confirm that the compound present in the NHP vitreous maintains C3b-binding activity, which is a prerequisite for eliciting its inhibitory action across all complement pathways, surface plasmon resonance (SPR) binding experiments were conducted. Briefly, for a positive binding control, serial dilutions of Cp40-KKK (16, 8, 4, and 2 nM) were added to rabbit vitreous samples and flowed onto a Biacore CM5 chip immobilized with purified human C3b (Complement Technology Inc, Tyler, Tex.) (see FIG. 19A). Next, vitreous samples were collected from a Cp40-KKK injected eye at day 14 post-injection and subjected to heat-inactivation at 95° C. for 5 min. Both heat-inactivated and non-heat-inactivated samples were flowed onto a CM5 chip immobilized with purified human C3b as indicated above (FIG. 19B).

[11] = molecular target: T2, human C3b (Homo sapiens, UniProt P01024); experiment: SPR binding affinity and kinetics with C3b; settings: 25° C., 1:1 Langmuir model; read-out: ka, association constant
T2 construct: purchased Complement Technology, Inc., Tyler, Tex

[12] = Lys cleavage fragments in NHP plasma after s.c. injection (UPLC-ESI-MS); type: in vivo, cynomolgus monkeys; settings: after s.c. 2 mg/kg Cp40-KKK, both animals
[13] = Pharmacokinetics after single i.v. injection; set-up: species or system cynomolgus monkeys; settings: cynomolgus monkey, in vivo, iv
Protocol: In vivo pharmacokinetic studies were conducted, in which cynomolgus monkeys were administered single i.v. injections of mPEG(1k)-Cp40, mPEG(3k)-Cp40, Cp40-KK, or Cp40-KKK.

[14] = Pharmacokinetics after single i.m. injection; settings: cynomolgus monkey, in vivo, im, 25 mg/kg
[15] = test system: C3; experiment: C3 saturation in NHP plasma after single s.c. injection; type: in vivo, cynomolgus monkeys (Macaca fascicularis); settings: single s.c. 2 mg/kg
[16] = cynomolgus monkey, in vivo, sc, 2 mg/kg
[17] = at the solubility concentration
[18] = male, cynomolgus monkey, plasma, sc, 2 mg/kg, single s.c. 2 mg/kg, NHP plasma, two animals
[19] = male, cynomolgus monkey, plasma, sc, 2 mg/kg, Cmax, single s.c. 2 mg/kg, NHP plasma, two animals
[20] = single s.c. 2 mg/kg, NHP plasma, two animals, 2 mg/kg
[21] = single s.c. 2 mg/kg, NHP plasma, two animals, listed as Cp40-KKK (SUM), 2 mg/kg

T1 sequence (P01024 23-667 limits assumed): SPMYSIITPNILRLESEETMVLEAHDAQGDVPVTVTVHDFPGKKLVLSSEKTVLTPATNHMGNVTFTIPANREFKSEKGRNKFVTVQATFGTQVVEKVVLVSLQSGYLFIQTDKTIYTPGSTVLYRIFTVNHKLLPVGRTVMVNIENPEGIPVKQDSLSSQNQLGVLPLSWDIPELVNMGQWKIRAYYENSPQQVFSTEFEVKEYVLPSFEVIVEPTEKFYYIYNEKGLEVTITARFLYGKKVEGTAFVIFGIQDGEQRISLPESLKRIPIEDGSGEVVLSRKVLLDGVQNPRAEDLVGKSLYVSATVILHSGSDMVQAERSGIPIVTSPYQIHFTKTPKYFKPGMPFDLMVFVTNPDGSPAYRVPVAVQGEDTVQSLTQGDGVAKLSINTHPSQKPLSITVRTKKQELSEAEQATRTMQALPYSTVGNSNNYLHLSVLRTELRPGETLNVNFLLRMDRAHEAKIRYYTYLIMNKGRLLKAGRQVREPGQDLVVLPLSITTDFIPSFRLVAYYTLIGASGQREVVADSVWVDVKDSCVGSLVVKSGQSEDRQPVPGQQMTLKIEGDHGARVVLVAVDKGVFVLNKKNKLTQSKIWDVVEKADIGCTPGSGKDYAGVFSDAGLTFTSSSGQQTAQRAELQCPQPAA
T1 sequence (P01024 749-1663 partner limits assumed): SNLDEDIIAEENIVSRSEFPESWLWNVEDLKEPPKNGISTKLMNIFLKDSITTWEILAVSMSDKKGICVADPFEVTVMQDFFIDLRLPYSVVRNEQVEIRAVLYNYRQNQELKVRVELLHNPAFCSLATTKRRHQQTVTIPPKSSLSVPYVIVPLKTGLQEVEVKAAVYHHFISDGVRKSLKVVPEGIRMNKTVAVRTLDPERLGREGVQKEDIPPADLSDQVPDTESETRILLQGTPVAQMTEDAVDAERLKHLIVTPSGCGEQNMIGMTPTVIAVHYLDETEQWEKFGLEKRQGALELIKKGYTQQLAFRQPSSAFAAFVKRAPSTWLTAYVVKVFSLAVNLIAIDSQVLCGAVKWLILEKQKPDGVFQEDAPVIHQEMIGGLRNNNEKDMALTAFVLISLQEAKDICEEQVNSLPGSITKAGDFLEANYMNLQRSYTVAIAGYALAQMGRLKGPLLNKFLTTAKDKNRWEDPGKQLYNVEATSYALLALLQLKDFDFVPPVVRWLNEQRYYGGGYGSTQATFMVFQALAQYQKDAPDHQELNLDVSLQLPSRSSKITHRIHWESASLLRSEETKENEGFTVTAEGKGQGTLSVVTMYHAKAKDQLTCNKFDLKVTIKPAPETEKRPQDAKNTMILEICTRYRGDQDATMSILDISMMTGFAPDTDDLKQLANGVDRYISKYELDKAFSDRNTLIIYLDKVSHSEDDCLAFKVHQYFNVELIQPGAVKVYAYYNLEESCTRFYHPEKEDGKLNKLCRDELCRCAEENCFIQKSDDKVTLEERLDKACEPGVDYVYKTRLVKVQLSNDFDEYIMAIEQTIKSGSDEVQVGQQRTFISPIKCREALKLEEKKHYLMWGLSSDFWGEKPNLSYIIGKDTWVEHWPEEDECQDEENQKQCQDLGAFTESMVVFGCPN
Chain of C3 (Homo sapiens, UniProt P01024) (P01024 23-1663): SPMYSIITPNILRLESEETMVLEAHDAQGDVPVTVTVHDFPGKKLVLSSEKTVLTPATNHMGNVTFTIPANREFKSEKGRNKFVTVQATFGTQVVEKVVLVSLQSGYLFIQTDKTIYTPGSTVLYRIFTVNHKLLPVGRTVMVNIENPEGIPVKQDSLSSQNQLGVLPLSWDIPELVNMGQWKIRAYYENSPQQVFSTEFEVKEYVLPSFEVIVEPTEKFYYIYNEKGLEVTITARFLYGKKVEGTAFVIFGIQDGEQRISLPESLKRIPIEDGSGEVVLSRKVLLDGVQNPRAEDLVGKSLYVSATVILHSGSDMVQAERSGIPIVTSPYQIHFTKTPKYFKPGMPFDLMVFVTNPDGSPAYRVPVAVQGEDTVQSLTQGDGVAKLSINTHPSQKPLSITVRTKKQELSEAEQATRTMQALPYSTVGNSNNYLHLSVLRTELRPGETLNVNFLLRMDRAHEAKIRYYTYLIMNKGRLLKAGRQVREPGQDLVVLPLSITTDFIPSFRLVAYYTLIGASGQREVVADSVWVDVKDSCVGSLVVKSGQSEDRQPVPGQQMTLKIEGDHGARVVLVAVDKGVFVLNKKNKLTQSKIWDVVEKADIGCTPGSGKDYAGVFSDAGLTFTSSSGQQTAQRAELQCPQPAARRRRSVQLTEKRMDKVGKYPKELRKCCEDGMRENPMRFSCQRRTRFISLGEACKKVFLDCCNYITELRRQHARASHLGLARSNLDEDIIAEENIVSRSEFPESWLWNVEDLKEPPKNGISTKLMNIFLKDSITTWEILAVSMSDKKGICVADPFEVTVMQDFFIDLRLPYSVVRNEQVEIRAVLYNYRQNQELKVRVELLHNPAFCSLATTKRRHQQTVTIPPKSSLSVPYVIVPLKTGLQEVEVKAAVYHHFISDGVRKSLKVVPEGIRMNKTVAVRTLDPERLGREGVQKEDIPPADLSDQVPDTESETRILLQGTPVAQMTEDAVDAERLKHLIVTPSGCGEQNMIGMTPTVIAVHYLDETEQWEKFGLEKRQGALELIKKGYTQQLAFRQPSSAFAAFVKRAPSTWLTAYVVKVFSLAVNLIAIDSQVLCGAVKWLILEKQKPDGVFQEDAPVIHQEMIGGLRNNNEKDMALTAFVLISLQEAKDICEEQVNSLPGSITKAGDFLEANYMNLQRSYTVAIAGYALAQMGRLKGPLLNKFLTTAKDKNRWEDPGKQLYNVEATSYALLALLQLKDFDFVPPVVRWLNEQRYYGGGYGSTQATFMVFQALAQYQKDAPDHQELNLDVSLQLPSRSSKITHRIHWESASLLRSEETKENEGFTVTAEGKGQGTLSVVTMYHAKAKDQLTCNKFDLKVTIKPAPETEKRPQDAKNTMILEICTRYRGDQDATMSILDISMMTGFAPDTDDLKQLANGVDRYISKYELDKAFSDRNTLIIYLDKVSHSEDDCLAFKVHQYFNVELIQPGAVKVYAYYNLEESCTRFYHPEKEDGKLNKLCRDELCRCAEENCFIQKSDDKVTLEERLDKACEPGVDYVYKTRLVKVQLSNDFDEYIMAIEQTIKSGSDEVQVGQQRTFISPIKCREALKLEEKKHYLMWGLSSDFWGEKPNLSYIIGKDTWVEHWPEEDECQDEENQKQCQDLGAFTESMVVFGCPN
T2 sequence (P01024 23-667 limits assumed): as the sequence (P01024 23-667 limits assumed) above
T2 sequence (P01024 749-1663 partner limits assumed): as the sequence (P01024 749-1663 partner limits assumed) above

CC[C@H](C)[C@H](NC(=O)[C@H](N)Cc1ccc(O)cc1)C(=O)N[C@H]1CSSC[C@@H](C(=O)N(C)[C@H](C(N)=O)[C@@H](C)CC)NC(=O)[C@H](CCCNC(=N)N)NC(=O)[C@H](Cc2c[nH]cn2)NC(=O)[C@H](C)NC(=O)CN(C)C(=O)[C@H](Cc2c[nH]c3ccccc23)NC(=O)[C@H](CC(=O)O)NC(=O)[C@H](CCC(N)=O)NC(=O)[C@H](Cc2cn(C)c3ccccc23)NC(=O)[C@H](C(C)C)NC1=O [Cp40, DTyr-Ile-[Cys-Val-Trp(Me)-Gln-Asn-Trp-Sar-Ala-His-Arg-Cys]-mIle-NH2, reference compound]
binding affinity for C3 [1]: subnanomolar | binding affinity for C3 higher than that of the parent peptide [1]: ~6,000 fold | half-life [2]: 41 h | pH of the peptide solution in PBS [3, 17]: 7.5 | AUC(0-t) [4, 18]: 233 µM·h | AUC(0-inf) [4, 18]: 263 µM·h | Cmax [4, 19]: 6.2 µM | Tmax ([4]; male, cynomolgus monkey, plasma, sc, 2 mg/kg, tmax, single s.c. 2 mg/kg, NHP plasma, two animals): 2 h | AUC0-t (0-120 h) [4, 20]: 218 µM·h | AUCinf [4, 20]: 255 µM·h | Cmax [4, 20]: 5.53 µM | half-life [5]: ~192 h | detection in the vitreous ([6]; Cp40 i.v.t administered): no detection of any compound was observed after one month | Cmax ([7]; in vivo, 4 mg/kg): 8 to 10 µM | complement classical pathway inhibitory activity [8]: inhibitory activity in a dose-dependent manner | solubility [9]: ≥ 1.08 mg/mL

CC[C@H](C)[C@H](NC(=O)[C@H](N)Cc1ccc(O)cc1)C(=O)N[C@H]1CSSC[C@@H](C(=O)N(C)[C@H](C(=O)N[C@@H](CCCCN)C(=O)N[C@@H](CCCCN)C(=O)N[C@@H](CCCCN)C(N)=O)[C@@H](C)CC)NC(=O)[C@H](CCCNC(=N)N)NC(=O)[C@H](Cc2c[nH]cn2)NC(=O)[C@H](C)NC(=O)CN(C)C(=O)[C@H](Cc2c[nH]c3ccccc23)NC(=O)[C@H](CC(=O)O)NC(=O)[C@H](CCC(N)=O)NC(=O)[C@H](Cc2cn(C)c3ccccc23)NC(=O)[C@H](C(C)C)NC1=O [Cp40-KKK, DTyr-Ile-[Cys-Val-Trp(Me)-Gln-Asn-Trp-Sar-Ala-His-Arg-Cys]-mIle-Lys-Lys-Lys-NH2]
C3b-binding signal ([10]; heat-inactivated vitreous sample): 10 relative units | C3b-binding signal ([10]; non-heat inactivated vitreous sample): 2 relative units | binding to C3b ([10]; spiked into rabbit vitreous, 2-16 nM): binds to C3b in a dose-dependent manner | C3b-binding activity of compound present in NHP vitreous ([10]; vitreous from injected eye, day 14 post-injection): maintains its C3b-binding activity | kon [11]: 3.83e+06 M⁻¹ s⁻¹ | pH of the peptide solution in PBS ([3]; after additional lyophilization from H2O): 9.5 | pH of the peptide solution in PBS [3, 17]: 8.5 | pH of the peptide solution in PBS ([3]; pH adjusted upon addition of PBS): 7.5* | CL/F ([4]; male, cynomolgus monkey, plasma, sc, 2 mg/kg): ~45 mL/min/kg | AUC(0-t) [4, 18]: ~616 µM·h | AUC(0-inf) [4, 18]: 805 µM·h | Cmax [4, 19]: ~13.5 µM | half-life ([4]; male, cynomolgus monkey, plasma, sc, 2 mg/kg, t1/2, single s.c. 2 mg/kg, NHP plasma, two animals): ~44.3 h | AUC0-t increased vs Cp40 ([4]; s.c. 2 mg/kg): ~2.6 fold | CL/F decreased vs Cp40 ([4]; s.c. 2 mg/kg): ~3 fold | cmax higher than Cp40 ([4]; s.c. 2 mg/kg): ~2 fold | t1/2 [4, 20]: 42 h and 47 h | AUC0-t (0-120 h) [4, 21]: 658 µM·h and 573 µM·h | AUCinf [4, 21]: 685 µM·h | Cmax [4, 21]: 11.9 µM and 15.1 µM | t1/2 [4, 21]: 46.7 h and 41.8 h | intravitreal residence time ([6]; after i.v.t.): ≥ 3 months | vitreous residence time at C3 saturating levels ([6]; single i.v.t. injection 0.5 mg): ≥ 90 days | detection in the vitreous at time points post-injection ([6]; single i.v.t. injection 0.5 mg): detected even at day 90 post-treatment | concentration of intact Cp40-KKK in plasma at any time point [12]: ≤ 2 µM | Cmax ([7]; plasma, 2 mg/kg every 48 hrs, read-out: observed Cmax after multiple s.c. dosing): ≥ 20 µM | complement classical pathway inhibitory activity [8]: inhibitory activity in a dose-dependent manner | Lys cleavage in plasma upon i.v. injection [13]: metabolized into Cp40-KK and small amounts of Cp40-K | half-life ([13]; single i.v. injection 2 mg/kg): 35.3 h | AUC(0-t) ([13]; single i.v. injection 2 mg/kg, read-out: AUC 0-120): 312 µM·h | half-life [14]: ~192 h

mPEG(3k)-Cp40: N-terminus of Cp40 coupled to polydisperse PEG chain of 3 kDa via amide coupling
C3 saturation time (peptide above plasma level of C3) [15]: ~34 h | Conc. (solubility in PBS) ([3]; PBS (pH 7.4)): 270 mg/mL | pH of the peptide solution in PBS [3, 17]: 7 | detection in the vitreous at time points post-injection ([6]; single i.v.t. injection 0.5 mg): detected at day 14 post injection but not in later time points | CL/F [16]: ~43.5 mL/min/kg
